Measured values reported in ChEMBL document CHEMBL3885861, “Open TG-GATES”.

Species: Rattus norvegicus
Test: Open TG-GATES - Regimen: Daily Repeat
Format: toxicity, organism-based, Sprague-Dawley
Design: regimen Daily Repeat, gender Male, age 6 weeks
Conditions: in vivo, po, route gavage; for APTT / Bas / Eos / Fbg / Hb / Ht / Lym / MCH / MCHC / MCV / Mono / Neu / PT / Plat / RBC / Ret / WBC: tissue Blood; for KIDNEY_L / KIDNEY_R / KIDNEY_TOTAL: tissue Kidney; for LIVER: tissue Liver; for A/G / ALP / ALT / AST / BUN / CRE / Ca / Cl / DBIL / GLC / IP / K / LDH / Na / PL / RALB / TBIL / TC / TG / TP / gamma-GTP: tissue Plasma
[1] = 10 mg/kg, 72 h, dose level Middle, time 3 day
[2] = 10 mg/kg, […], dose level Middle, time 7 day
[3] = 10 mg/kg, […], dose level Middle, time 14 day
[4] = 10 mg/kg, […], dose level Middle, time 28 day
[5] = 30 mg/kg, 72 h, dose level High, time 3 day
[6] = 30 mg/kg, […], dose level High, time 7 day
[7] = 30 mg/kg, […], dose level High, time 14 day
[8] = 30 mg/kg, […], dose level High, time 28 day

## CN(C)CCC(c1ccc(Cl)cc1)c1ccccn1 (centres undefined) [CHLORPHENIRAMINE]
[1]
  TERMINAL_BW: 226.7 g
  APTT: 18.1 s
  Bas: 0%
  Eos: 1.2%
  Fbg: 297.4 mg/dL
  Hb: 13.1 g/dL
  Ht: 40.4%
  Lym: 77.4%
  MCH: 20.7 pg
  MCHC: 32.3%
  MCV: 63.9 fL
  Mono: 2.6%
  Neu: 18.6%
  PT: 14.8 s
  Plat: 123.1 x10_4/uL
  RBC: 631.8 x10_4/ul
  Ret: 6.1%
  WBC: 88.3 x10_2/uL
  KIDNEY_L: 1 g
  KIDNEY_R: 0.9 g
  KIDNEY_TOTAL: 1.9 g
  LIVER: 10.2 g
  A/G: 0.9
  ALP: 1653.8 IU/L
  ALT: 38.8 IU/L
  AST: 67.8 IU/L
  BUN: 14.4 mg/dL
  CRE: 0.2 mg/dL
  Ca: 10.4 mg/dL
  Cl: 107.2 meq/L
  DBIL: 0.016 mg/dL
  GLC: 184.6 mg/dL
  IP: 7.4 mg/dL
  K: 4.5 meq/L
  LDH: 94.6 IU/L
  Na: 141.6 meq/L
  PL: 147.8 mg/dL
  RALB: 2.6 g/dL
  TBIL: 0.038 mg/dL
  TC: 82 mg/dL
  TG: 76.2 mg/dL
  TP: 5.6 g/dL
  gamma-GTP: 1.4 IU/L
[2]
  TERMINAL_BW: 266.4 g
  APTT: 22.1 s
  Bas: 0%
  Eos: 0.8%
  Fbg: 297.2 mg/dL
  Hb: 13.6 g/dL
  Ht: 41%
  Lym: 77%
  MCH: 20.8 pg
  MCHC: 33%
  MCV: 63.1 fL
  Mono: 2.2%
  Neu: 19.2%
  PT: 14.1 s
  Plat: 110 x10_4/uL
  RBC: 650.4 x10_4/ul
  Ret: 5.7%
  WBC: 82.7 x10_2/uL
  KIDNEY_L: 1.1 g
  KIDNEY_R: 1.1 g
  KIDNEY_TOTAL: 2.2 g
  LIVER: 12.1 g
  A/G: 0.8
  ALP: 1451.2 IU/L
  ALT: 40.6 IU/L
  AST: 64.4 IU/L
  BUN: 15.8 mg/dL
  CRE: 0.2 mg/dL
  Ca: 11.4 mg/dL
  Cl: 105.8 meq/L
  DBIL: 0.012 mg/dL
  GLC: 194.4 mg/dL
  IP: 7.6 mg/dL
  K: 4.2 meq/L
  LDH: 96.6 IU/L
  Na: 142.6 meq/L
  PL: 158.4 mg/dL
  RALB: 2.6 g/dL
  TBIL: 0.028 mg/dL
  TC: 84.8 mg/dL
  TG: 98 mg/dL
  TP: 5.8 g/dL
  gamma-GTP: 1 IU/L
[3]
  TERMINAL_BW: 329 g
  APTT: 16.1 s
  Bas: 0.2%
  Eos: 0.4%
  Fbg: 365 mg/dL
  Hb: 14 g/dL
  Ht: 42.2%
  Lym: 73.6%
  MCH: 20.3 pg
  MCHC: 33.1%
  MCV: 61.3 fL
  Mono: 3.4%
  Neu: 19.8%
  PT: 14.4 s
  Plat: 118 x10_4/uL
  RBC: 687.8 x10_4/ul
  Ret: 4.6%
  WBC: 91.1 x10_2/uL
  KIDNEY_L: 1.3 g
  KIDNEY_R: 1.2 g
  KIDNEY_TOTAL: 2.5 g
  LIVER: 14.6 g
  A/G: 0.8
  ALP: 1493.6 IU/L
  ALT: 41.6 IU/L
  AST: 64 IU/L
  BUN: 15.8 mg/dL
  CRE: 0.2 mg/dL
  Ca: 11.2 mg/dL
  Cl: 105.4 meq/L
  DBIL: 0.016 mg/dL
  GLC: 199.6 mg/dL
  IP: 7.8 mg/dL
  K: 4 meq/L
  LDH: 103 IU/L
  Na: 144 meq/L
  PL: 152.2 mg/dL
  RALB: 2.8 g/dL
  TBIL: 0.034 mg/dL
  TC: 78.2 mg/dL
  TG: 116.2 mg/dL
  TP: 6 g/dL
  gamma-GTP: 1 IU/L
[4]
  TERMINAL_BW: 411.3 g
  APTT: 18.2 s
  Bas: 0%
  Eos: 1%
  Fbg: 267.8 mg/dL
  Hb: 15.2 g/dL
  Ht: 45.1%
  Lym: 78.8%
  MCH: 18.9 pg
  MCHC: 33.8%
  MCV: 56 fL
  Mono: 2.2%
  Neu: 17.4%
  PT: 15.2 s
  Plat: 106.7 x10_4/uL
  RBC: 806.2 x10_4/ul
  Ret: 2.2%
  WBC: 92.2 x10_2/uL
  KIDNEY_L: 1.5 g
  KIDNEY_R: 1.4 g
  KIDNEY_TOTAL: 2.9 g
  LIVER: 16.2 g
  A/G: 0.8
  ALP: 1476.8 IU/L
  ALT: 39 IU/L
  AST: 67 IU/L
  BUN: 16.8 mg/dL
  CRE: 0.2 mg/dL
  Ca: 10.5 mg/dL
  Cl: 107.2 meq/L
  DBIL: 0.016 mg/dL
  GLC: 193.4 mg/dL
  IP: 6.2 mg/dL
  K: 4.1 meq/L
  LDH: 87.2 IU/L
  Na: 144.2 meq/L
  PL: 141 mg/dL
  RALB: 2.7 g/dL
  TBIL: 0.03 mg/dL
  TC: 65.6 mg/dL
  TG: 136.6 mg/dL
  TP: 6 g/dL
  gamma-GTP: 1 IU/L
[5]
  TERMINAL_BW: 205.8 g
  APTT: 18.2 s
  Bas: 0.4%
  Eos: 1%
  Fbg: 272.2 mg/dL
  Hb: 14.3 g/dL
  Ht: 43.8%
  Lym: 78.6%
  MCH: 20.4 pg
  MCHC: 32.5%
  MCV: 62.5 fL
  Mono: 3.2%
  Neu: 15.8%
  PT: 15.3 s
  Plat: 124 x10_4/uL
  RBC: 701 x10_4/ul
  Ret: 3.4%
  WBC: 91.9 x10_2/uL
  KIDNEY_L: 1 g
  KIDNEY_R: 0.9 g
  KIDNEY_TOTAL: 1.9 g
  LIVER: 8.8 g
  A/G: 0.9
  ALP: 1539.6 IU/L
  ALT: 38 IU/L
  AST: 67.2 IU/L
  BUN: 14.8 mg/dL
  CRE: 0.2 mg/dL
  Ca: 10.3 mg/dL
  Cl: 108.8 meq/L
  DBIL: 0.012 mg/dL
  GLC: 182.6 mg/dL
  IP: 7.5 mg/dL
  K: 4.5 meq/L
  LDH: 95.6 IU/L
  Na: 142.2 meq/L
  PL: 133 mg/dL
  RALB: 2.6 g/dL
  TBIL: 0.038 mg/dL
  TC: 74.6 mg/dL
  TG: 62.6 mg/dL
  TP: 5.5 g/dL
  gamma-GTP: 1.2 IU/L
[6]
  TERMINAL_BW: 242.7 g
  APTT: 19.1 s
  Bas: 0.4%
  Eos: 1%
  Fbg: 302.6 mg/dL
  Hb: 13.6 g/dL
  Ht: 40.9%
  Lym: 74%
  MCH: 20.5 pg
  MCHC: 33.3%
  MCV: 61.4 fL
  Mono: 3.2%
  Neu: 21.2%
  PT: 13.9 s
  Plat: 119 x10_4/uL
  RBC: 665.2 x10_4/ul
  Ret: 3.6%
  WBC: 121.3 x10_2/uL
  KIDNEY_L: 1 g
  KIDNEY_R: 1 g
  KIDNEY_TOTAL: 2 g
  LIVER: 10.9 g
  A/G: 0.8
  ALP: 1512.4 IU/L
  ALT: 40.6 IU/L
  AST: 65 IU/L
  BUN: 16 mg/dL
  CRE: 0.2 mg/dL
  Ca: 11.3 mg/dL
  Cl: 106.2 meq/L
  DBIL: 0.012 mg/dL
  GLC: 185.6 mg/dL
  IP: 7.6 mg/dL
  K: 4.4 meq/L
  LDH: 112.2 IU/L
  Na: 141.6 meq/L
  PL: 163.6 mg/dL
  RALB: 2.6 g/dL
  TBIL: 0.028 mg/dL
  TC: 86.4 mg/dL
  TG: 117 mg/dL
  TP: 5.8 g/dL
  gamma-GTP: 1 IU/L
[7]
  TERMINAL_BW: 294.5 g
  APTT: 17.1 s
  Bas: 0.2%
  Eos: 0.8%
  Fbg: 282 mg/dL
  Hb: 14.1 g/dL
  Ht: 42.4%
  Lym: 79.2%
  MCH: 19.9 pg
  MCHC: 33.4%
  MCV: 59.7 fL
  Mono: 2.6%
  Neu: 16.4%
  PT: 14.3 s
  Plat: 113.7 x10_4/uL
  RBC: 709 x10_4/ul
  Ret: 4.6%
  WBC: 93.8 x10_2/uL
  KIDNEY_L: 1.1 g
  KIDNEY_R: 1.1 g
  KIDNEY_TOTAL: 2.3 g
  LIVER: 12.6 g
  A/G: 0.8
  ALP: 1415.4 IU/L
  ALT: 32.8 IU/L
  AST: 57.8 IU/L
  BUN: 15.4 mg/dL
  CRE: 0.2 mg/dL
  Ca: 11.1 mg/dL
  Cl: 105.8 meq/L
  DBIL: 0.012 mg/dL
  GLC: 190.6 mg/dL
  IP: 7.6 mg/dL
  K: 4.6 meq/L
  LDH: 122.4 IU/L
  Na: 141.8 meq/L
  PL: 155.8 mg/dL
  RALB: 2.8 g/dL
  TBIL: 0.03 mg/dL
  TC: 82.4 mg/dL
  TG: 121 mg/dL
  TP: 6 g/dL
  gamma-GTP: 1 IU/L
[8]
  TERMINAL_BW: 368.6 g
  APTT: 20.7 s
  Bas: 0%
  Eos: 0.8%
  Fbg: 290.6 mg/dL
  Hb: 15.8 g/dL
  Ht: 46.8%
  Lym: 80.6%
  MCH: 19 pg
  MCHC: 33.8%
  MCV: 56.2 fL
  Mono: 2.6%
  Neu: 14.8%
  PT: 15.1 s
  Plat: 110.6 x10_4/uL
  RBC: 834 x10_4/ul
  Ret: 2.2%
  WBC: 98.8 x10_2/uL
  KIDNEY_L: 1.5 g
  KIDNEY_R: 1.4 g
  KIDNEY_TOTAL: 2.9 g
  LIVER: 15.6 g
  A/G: 0.8
  ALP: 1092.6 IU/L
  ALT: 34 IU/L
  AST: 54.6 IU/L
  BUN: 16 mg/dL
  CRE: 0.2 mg/dL
  Ca: 10.7 mg/dL
  Cl: 105.6 meq/L
  DBIL: 0.014 mg/dL
  GLC: 184 mg/dL
  IP: 7.1 mg/dL
  K: 4.4 meq/L
  LDH: 92.8 IU/L
  Na: 144.2 meq/L
  PL: 150.2 mg/dL
  RALB: 2.8 g/dL
  TBIL: 0.03 mg/dL
  TC: 75.2 mg/dL
  TG: 148 mg/dL
  TP: 6.2 g/dL
  gamma-GTP: 1.2 IU/L
